Data reported in patent US7109170B2, “Region of factor IXa protease domain that interacts with factor VIIIa and methods therefor” (Saint Louis University, priority 1999, dated 2006).

Experiments:
Assay type in all cases: biochemical
[1] = test system: Factor IX deficient plasma; experiment: relative coagulant activity of factor IX proteins (zymogens); conditions: for relative coagulant activity: factor IX proteins before activation, IXNP = 100%
Text: The following reagents were used. Benzoyl-Ile-Glu-Gly-Arg-p-nitroanilide (SEQ ID NO: 17) (S-2222) was purchased from Helena Laboratories. Dansyl-Glu-Gly-Arg-chloromethyl ketone (DEGR-ck) was obtained from Calbiochem. Phosphatidylcholine, phosphatidylserine, recombinant hirudin, and fatty acid free bovine serum albumin (BSA) were obtained from Sigma Chemical Co. Factor IX and factor VIII deficient plasmas were purchased from George King Biomedicals and aPTT reagent was obtained from Diagnostica Stago. Normal human plasma factor IX (IXNP) and factor X were isolated as described in Bajaj and Birktoft, 1993, Methods Enzymol. 222, 96–128, and factor Xa was prepared as described in Bajaj et al., 1981, Prep. Biochem. 11, 397–412. Purified human factor XIa, protein C, activated protein C, and α-thrombin (IIa) were purchased from Enzyme Research Laboratories (South Bend, Ind.). Recombinant human tissue factor of aa 1–243 containing the transmembrane domain was generously provided by Genentech Inc. (South San Francisco, Calif.) and reconstituted as described in Sabharwal et al., 1995, J. Biol. Chem. 270, 15523–15530. Phosphatidylcholine-phosphatidylserine vesicles (75% phosphatidylcholine, 25% phosphatidylserine) were prepared by the method of Husten et al., 1987, J. Biol. Chem. 262, 12953–12966 as outlined in Sabharwal et al (Id.). Recombinant human factor VIIa was a generous gift of Novo-Nordisk (Copenhagen). Purified human factor VIII was obtained from Dr. Leon Hoyer (American Red Cross, Rockville, Md.). The preparation was free of all other coagulation factors and contained human albumin as a stabilizing agent. Purification of a mouse monoclonal antibody (mAb) that inhibits the interaction of factor IXa with factor VIIIa was as described in Bajaj et al., 1985, J. Biol. Chem. 260:11574–11580. […]

[2] = test system: Factor IX deficient plasma; experiment: coagulant activity of XIa-activated IXa proteins
factor X [3] = molecular target: T1, factor X (Homo sapiens, UniProt P00742); experiment: factor X activation in complete intrinsic Tenase system (IXa, Ca2+, phospholipid, VIIIa); set-up: Normal human plasma factor IX (IXNP) and factor X were isolated as described in Bajaj and Birktoft; from tissue; host or cells: human plasma (factor X); factor VIII obtained from Dr. Leon Hoyer, American Red Cross; conditions: phospholipid present; for rate of factor X activation at increased VIIIa: VIIIa increased from 70 pM to 14 nM
Protocol: (§1) The ability of each activated mutant to activate factor X in the presence and absence of phospholipid and factor VIIIa was determined as follows. The activation was carried out at 37° C. in a 50 μl reaction volume, in TBS/BSA pH 7.4, for various time periods. At the end of the incubation time period, each reaction mixture received 1 μl of 0.5 M EDTA to stop further generation of factor Xa. A 40 μL aliquot was then added to 0.1 ml quartz cuvette containing S-2222 in 75 μL of TBS/BSA, pH 7.4. The final concentration of S-2222 was 100 μM. The p-nitroaniline release was measured continuously (ΔA405/min) for up to 20 min (Sabharwal et al., 1995 supra; Sabharwal et al., 1997, supra). Factor Xa generated was calculated from a standard curve constructed using factor Xa prepared from insolubilized Russell's viper venom.
(§2) Factor X activation measurements were made under four experimental regimes. In one, Ca^2+ and phospholipid were present. In this system activation was carried out for 5–15 minutes and the concentration of each IXa protein was 20 nM, phospholipid was 25 μM, and factor X was 100 nM. In the second regime, Ca^2+, phospholipid and factor VIIIa were present. […] In the third regime, only Ca^2+ was present. Here, activation was carried out for 2–20 min and concentration of each IXa protein was 400 nM and factor X was 1 μM. Finally, in the fourth regime, Ca^2+ and VIIIa were present. Here, activation was carried out for 15–120 sec and the concentration of each IXa protein was 2 μM, VIIIa was 14 nM, and factor X was 400 nM.
(§3) In all of the above factor X activation experiments, the incubation times chosen were those in which the factor Xa generated was always less than 10 nM. This precautionary measure was taken to prevent activation of factor X by the generated factor Xa (see, e.g., Link. and Castellino, 1982, Arch Biochem. Biophys. 215, 215–221). Further, in those incubation mixtures which contained […], control experiments were also performed in which factor VIIIa was omitted. […] In the presence of factor VIIIa, 10 μM phospholipid was used based upon previous observations (Mathur et al., 1997, supra; van Dieijen et al., 1981, J. Biol. Chem. 256, 3433–3442). The concentrations of factor X selected for each set of reaction conditions are those which are below or at the Km values (van Dieijen et al., supra; Fay and Koshibu, 1998, J Biol. Chem. 273, 19049–19054). In this region of the Michaelis-Menton curve, the rate of formation of factor Xa is proportional to the substrate factor X and therefore to the affinity of the factor IXa enzyme for factor X.
Next, the activation of factor X in a complete intrinsic Tenase system (IXa, Ca^2+, phospholipid, VIIIa) was studied.

factor X [4] = molecular target: T1, factor X; experiment: factor X activation by IXa proteins, Ca2+ and VIIIa, no phospholipid; set-up: Normal human plasma factor IX (IXNP) and factor X were isolated as described in Bajaj and Birktoft; from tissue; host or cells: human plasma (factor X); factor VIII obtained from Dr. Leon Hoyer, American Red Cross; conditions: 14 nM VIIIa, 400 nM factor X
Protocol: as §1, §2, §3

factor VIIIa [5] = molecular target: T2, factor VIIIa (Homo sapiens, UniProt P00451); experiment: inhibition of Xa generation by active site-blocked (DEGR) IXa proteins, absence of phospholipid (Kd,app for VIIIa); conditions: absence of phospholipid
T2 construct: purchased Dr. Leon Hoyer (American Red Cross, Rockville, Md.)
T2 sequence (P00451 20-759 limits assumed): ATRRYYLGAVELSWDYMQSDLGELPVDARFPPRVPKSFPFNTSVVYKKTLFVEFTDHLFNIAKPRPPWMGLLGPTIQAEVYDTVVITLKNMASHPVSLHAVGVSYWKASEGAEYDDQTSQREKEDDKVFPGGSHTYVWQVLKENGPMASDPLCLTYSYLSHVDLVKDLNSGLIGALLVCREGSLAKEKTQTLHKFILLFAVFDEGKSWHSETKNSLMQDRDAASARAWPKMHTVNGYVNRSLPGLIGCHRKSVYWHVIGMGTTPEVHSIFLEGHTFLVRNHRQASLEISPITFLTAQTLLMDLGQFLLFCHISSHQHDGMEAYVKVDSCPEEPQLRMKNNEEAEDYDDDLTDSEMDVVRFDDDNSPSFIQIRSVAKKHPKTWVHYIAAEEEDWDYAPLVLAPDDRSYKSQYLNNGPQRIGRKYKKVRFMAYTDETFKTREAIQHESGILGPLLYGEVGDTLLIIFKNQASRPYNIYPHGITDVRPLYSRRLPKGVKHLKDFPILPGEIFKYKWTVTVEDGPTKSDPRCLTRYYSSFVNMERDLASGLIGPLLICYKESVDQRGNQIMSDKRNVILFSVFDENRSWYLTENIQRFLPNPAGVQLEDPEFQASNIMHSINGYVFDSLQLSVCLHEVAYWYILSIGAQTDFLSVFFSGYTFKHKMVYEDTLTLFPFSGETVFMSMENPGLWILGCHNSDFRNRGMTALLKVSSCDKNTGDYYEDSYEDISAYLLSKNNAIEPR
T2 sequence (P00451 1668-2351 limits assumed): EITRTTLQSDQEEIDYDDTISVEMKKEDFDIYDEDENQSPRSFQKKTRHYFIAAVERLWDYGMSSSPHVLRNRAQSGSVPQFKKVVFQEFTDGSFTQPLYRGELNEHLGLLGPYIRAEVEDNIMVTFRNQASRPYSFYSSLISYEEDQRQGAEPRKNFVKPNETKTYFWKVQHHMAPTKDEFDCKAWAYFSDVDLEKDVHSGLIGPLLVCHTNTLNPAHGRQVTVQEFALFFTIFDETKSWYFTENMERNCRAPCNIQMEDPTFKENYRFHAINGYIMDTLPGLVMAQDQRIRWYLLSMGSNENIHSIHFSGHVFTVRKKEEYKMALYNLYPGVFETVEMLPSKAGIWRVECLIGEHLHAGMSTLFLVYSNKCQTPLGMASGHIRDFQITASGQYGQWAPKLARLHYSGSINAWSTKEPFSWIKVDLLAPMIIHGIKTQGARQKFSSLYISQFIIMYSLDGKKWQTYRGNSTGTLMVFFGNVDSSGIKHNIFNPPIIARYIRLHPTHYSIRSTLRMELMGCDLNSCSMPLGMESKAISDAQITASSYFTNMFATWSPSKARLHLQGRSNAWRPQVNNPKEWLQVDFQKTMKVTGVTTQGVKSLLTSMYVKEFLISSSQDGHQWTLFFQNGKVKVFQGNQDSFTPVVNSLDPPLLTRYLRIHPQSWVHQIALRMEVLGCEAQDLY
Protocol: (§4) Apparent Kds of factor VIIIa binding to various active site-blocked factor IXa proteins were determined from inhibition experiments as detailed in Mathur et al., 1997, supra. […] Reactions were carried out for 2 min and the rates of factor X activation were measured as outlined above.
(§5) Various DEGR-ck-inhibited factor IXa proteins were prepared for these experiments as follows. IXNP, IXWT, and each mutant factor IX at 200 μg/ml was activated by factor XIa (2 μg/ml) for 90 min. in TBS, pH 7.4 (0.05 M Tris, 0.15 M NaCl, pH 7.4) containing 5 mM Ca^2+.
(§6) Enzymol. 74, 481–508 given below:
(§7) [formula] where y is the rate of Xa formation in the presence of a given concentration of DEGR-IXa protein represented by x, a is the maximum rate of Xa formation in the absence of DEGR-IXa, and s is the slope factor. Each point was weighted equally and the data were fitted to Equation 1 using the nonlinear regression analysis program obtained from Erithacus Software (GraFit). […] To obtain the Kd,app values for the interaction of DEGR-IXa proteins with factor VIIIa, the following equation was used, as described by Cheng and Prusoff, 1973, Biochem. Pharmacol. 22, 3099–3108 and further discussed by Craig, 1993, Trends Pharmacol. Sci. 6, 68–71.

factor VIIIa [6] = molecular target: T2, factor VIIIa; experiment: inhibition of Xa generation by active site-blocked (DEGR) IXa proteins, presence of phospholipid (Kd,app for VIIIa); conditions: presence of phospholipid
Protocol: as §4, §5, §6, §7

T1 sequence (P00742 183-488 limits assumed, one chain of several): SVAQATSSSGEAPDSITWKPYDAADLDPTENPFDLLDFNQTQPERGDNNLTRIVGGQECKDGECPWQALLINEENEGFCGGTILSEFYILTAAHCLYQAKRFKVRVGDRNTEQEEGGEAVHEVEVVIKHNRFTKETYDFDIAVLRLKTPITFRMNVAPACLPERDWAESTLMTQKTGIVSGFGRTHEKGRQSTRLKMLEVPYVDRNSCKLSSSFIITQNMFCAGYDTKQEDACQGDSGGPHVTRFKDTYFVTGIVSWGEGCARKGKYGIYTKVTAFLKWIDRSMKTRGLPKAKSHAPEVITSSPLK
T1 sequence (P00742 41-179 limits assumed, one chain of several): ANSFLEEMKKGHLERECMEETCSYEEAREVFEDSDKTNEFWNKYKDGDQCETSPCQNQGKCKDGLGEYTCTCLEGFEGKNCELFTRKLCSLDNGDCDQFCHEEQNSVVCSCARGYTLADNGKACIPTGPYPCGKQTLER

| Substance | relative coagulant activity [1] [%] | coagulant activity as compared to IXaNP [2] | also measured |
| --- | --- | --- | --- |
| IXD332Y: recombinant factor IX point mutant D332Y | ~2 |  |  |
| IXL337I: recombinant factor IX point mutant L337I | ~1 |  |  |
| IXL3301: recombinant factor IX point mutant L330I in helix-330 of protease domain | ~8 |  |  |
| IXNP: Normal human plasma factor IX | 100 |  | coagulant activity (specific) ([1]; plasma factor IX): 180±10 units/mg |
| IXR333L: recombinant factor IX point mutant R333L | 0.3 |  |  |
| IXR333Q: recombinant factor IX point mutant R333Q | ~0.5 |  |  |
| IXR338Q: recombinant factor IX point mutant R338Q | ~65 |  |  |
| IXT335A: recombinant factor IX point mutant T335A | ~40 |  |  |
| IXWT: recombinant wild-type factor IX [reference compound] | ~90 |  |  |
| IXaD332Y: activated factor IX mutant D332Y |  | ~2% | rate of factor X activation at increased VIIIa (factor X [3]): ~4.1 nM/min |
| IXaL330I: activated factor IX mutant L330I |  | ~7% | X-activation rate, PL-minus system (factor X [4]): 0.94 ± 0.03 nM/min; X-activation rate, PL-plus system (factor X [3]; 70 pM VIIIa, 0.5 nM IXa, 15 nM X): 0.95 ± 0.07 nM/min |
| IXaL337I: activated factor IX mutant L337I |  | ~0.8% | rate of factor X activation at increased VIIIa (factor X [3]): ~3.2 nM/min |
| IXaR333L: activated factor IX mutant R333L |  | ~0.4% | rate of factor X activation at increased VIIIa (factor X [3]): ~2.7 nM/min |
| IXaR333Q: activated factor IX mutant R333Q |  | ~0.6% | rate of factor X activation at increased VIIIa (factor X [3]): ~2.4 nM/min |
| IXaR338Q: activated factor IX mutant R338Q |  | ~80% | X-activation rate, PL-minus system (factor X [4]): 2.22 ± 0.15 nM/min |
| IXaWT: factor XIa-activated recombinant wild-type factor IX [reference compound] |  | ~95% |  |
| IXahelixVII: activated factor IX chimera with helix 330–338 replaced by factor VII residues |  | not measurable | rate of factor X activation at increased VIIIa (factor X [3]): not measurable |
| protein C: Purified human protein C, control protein [reference compound] |  |  | competition with IXa in binding to VIIIa / interaction with VIIIa (factor VIIIa [5]): neither protein C nor DEGR-activated protein C competed with IXa in binding to VIIIa; competition with IXa in binding to VIIIa / interaction with VIIIa (factor VIIIa [6]): neither protein C nor DEGR-activated protein C competed with IXa in binding to VIIIa |
